Experimental data taken from ChEMBL document CHEMBL1201862, “PubChem BioAssay data set” (2004).
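Exposure lasted 48 hours, with cells grown in 96-well plates and compounds tested at five concentrations. The concentration for 50% growth inhibition is given as GI50.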 Activity calls are given as the source filed them. No stated cut-off is given here; in the data, active = GI50 up to about 1.1 µM and inactive = higher.

Key:
Assay in all cases: DTP human tumour cell line panel, 48 h
A549 = test system: A549
ACHN = test system: ACHN
CAKI-1 = test system: CAKI-1
HCT-116 = test system: HCT-116
HCT-15 = test system: HCT-15
HL-60 = test system: HL-60
M14 = test system: M14
NCI-H226 = test system: NCI-H226
NCI-H23 = test system: NCI-H23
NCI-H522 = test system: NCI-H522
OVCAR-5 = test system: OVCAR-5
SK-MEL-28 = test system: SK-MEL-28
TK-10 = test system: TK-10
CCRF-CEM = test system: CCRF-CEM
HOP-92 = test system: HOP-92

SMILES | GI50 (A549) | GI50 (ACHN) | GI50 (CAKI-1) | GI50 (HCT-116) | GI50 (HCT-15) | GI50 (HL-60) | GI50 (M14) | GI50 (NCI-H226) | GI50 (NCI-H23) | GI50 (NCI-H522) | GI50 (OVCAR-5) | GI50 (SK-MEL-28) | GI50 (TK-10) | GI50 (CCRF-CEM) | GI50 (HOP-92)
COC(=O)c1c/c(=N\NC(=O)CC(=O)Nc2ccccc2OC)c2ccccc2o1 | 74.8 µM (inactive) | > 100 µM (inactive) | > 100 µM (inactive) | > 100 µM (inactive) | > 100 µM | > 100 µM (inactive) | > 100 µM (inactive) | > 100 µM (inactive) | > 100 µM (inactive) | > 100 µM (inactive) | > 100 µM (inactive) | > 100 µM (inactive) | > 100 µM (inactive) |  | 
COC(=O)C1C(=O)N(CCc2c[nH]c3ccccc23)C[C@@H]2CCC(=O)C[C@H]12 (stereo not given in full) | > 100 µM (inactive) |  | > 100 µM (inactive) | > 100 µM (inactive) | > 100 µM | > 100 µM (inactive) | > 100 µM (inactive) |  | > 100 µM (inactive) | > 100 µM (inactive) |  | > 100 µM (inactive) | > 100 µM (inactive) | > 100 µM (inactive) | > 100 µM (inactive)
O=S(=O)(O)SC/C=C\CSS(=O)(=O)O | 44.4 µM (inactive) | > 100 µM (inactive) | > 100 µM (inactive) | > 100 µM (inactive) | > 100 µM | > 100 µM (inactive) | > 100 µM (inactive) | 49.7 µM (inactive) | > 100 µM (inactive) | > 100 µM (inactive) | > 100 µM (inactive) | > 100 µM (inactive) | > 100 µM (inactive) |  | > 100 µM (inactive)
N#CC(C(=O)CCC(=O)C(C#N)c1ccccc1)c1ccccc1 (stereo not given) | > 100 µM (inactive) | > 100 µM (inactive) | > 100 µM (inactive) | > 100 µM (inactive) | > 100 µM | > 100 µM (inactive) | > 100 µM (inactive) | > 100 µM (inactive) | > 100 µM (inactive) | > 100 µM (inactive) | > 100 µM (inactive) | > 100 µM (inactive) | > 100 µM (inactive) | > 100 µM (inactive) | > 100 µM (inactive)
N=C(N)n1ncc(Cl)c(Cl)c1=O | 17.1 µM (inactive) | 3.81 µM (inactive) | 1.81 µM (inactive) | 1.73 µM (inactive) | 1.87 µM | 2.21 µM (inactive) | 1.98 µM (inactive) | 5.25 µM (inactive) | 2.45 µM (inactive) | 1.79 µM (inactive) | 15.2 µM (inactive) | 2.32 µM (inactive) | 19.4 µM (inactive) | 2.15 µM (inactive) | 2.43 µM (inactive)
N#Cc1ccc(OCCSCCCCCCCCCCSCCOc2ccc(C#N)cc2)cc1 | > 100 µM (inactive) | > 100 µM (inactive) |  |  | > 100 µM | > 100 µM (inactive) | > 100 µM (inactive) | > 100 µM (inactive) | > 100 µM (inactive) | 29.6 µM (inactive) | > 100 µM (inactive) | > 100 µM (inactive) | > 100 µM (inactive) | > 100 µM (inactive) | 
NC(=O)c1c2c(cc3c(=O)c4ccccc4[nH]c13)CCCC2 | > 100 µM (inactive) | > 100 µM (inactive) | > 100 µM (inactive) | > 100 µM (inactive) | > 100 µM | > 100 µM (inactive) | > 100 µM (inactive) | > 100 µM (inactive) | > 93.3 µM (inactive) | > 100 µM (inactive) | > 100 µM (inactive) | > 100 µM (inactive) | > 100 µM (inactive) | > 65 µM (inactive) | > 100 µM (inactive)
CC1CC[C@]2(C(=O)O)CCC3(COC(=O)/C=C\c4ccc(O)cc4)C(=CCC4[C@@]5(C)CC[C@H](O)C(C)(C)C5CC[C@]43C)[C@@H]2[C@H]1C (stereo not given in full) | 11.3 µM (inactive) | 10.4 µM (inactive) | 11.4 µM (inactive) | 17.5 µM (inactive) | 21 µM | 26.2 µM (inactive) | 17.6 µM (inactive) | 18.5 µM (inactive) | 13.9 µM (inactive) | 17.5 µM (inactive) | 19.5 µM (inactive) | 20 µM (inactive) | 21.7 µM (inactive) | 20.4 µM (inactive) | 
CCOC(=O)C(C)(C)Oc1ccc2c(=O)cc(-c3ccccc3)oc2c1 | 23.1 µM (inactive) | 54.7 µM (inactive) |  | 17.3 µM (inactive) | 20 µM | 14.1 µM (inactive) | 19.5 µM (inactive) | 22.8 µM (inactive) | 18.6 µM (inactive) | 13.9 µM (inactive) | > 100 µM (inactive) | 16.7 µM (inactive) | > 100 µM (inactive) | 18 µM (inactive) | 
CCOC(=O)C1N(S(=O)(=O)c2ccc(C)cc2)CCC12c1ccccc1N(C(C)=O)C2C(/C=C/C(=O)OC)=C/C(=O)OC (stereo not given) | 84.1 µM (inactive) | > 100 µM (inactive) | > 100 µM (inactive) | > 100 µM (inactive) |  | 66.8 µM (inactive) | > 100 µM (inactive) | > 100 µM (inactive) | > 100 µM (inactive) | > 100 µM (inactive) | > 100 µM (inactive) | > 100 µM (inactive) | > 100 µM (inactive) | > 100 µM (inactive) | 44.1 µM (inactive)
COC(=O)C(Cc1nc2ccccc2nc1O)C(NO)C(=O)Nc1c(Cl)cc([N+](=O)[O-])cc1Cl (stereo not given) | 38.5 µM (inactive) | 35.6 µM (inactive) | 27.6 µM (inactive) | 22.3 µM (inactive) | 49.2 µM |  | 50.1 µM (inactive) |  | 22.4 µM (inactive) | 15.5 µM (inactive) |  | 30.9 µM (inactive) |  | 23.3 µM (inactive) | 5.56 µM (inactive)
CN(C)CCNc1ccc2ncn3c4ccccc4c(=O)c1c23 | 1.82 µM (inactive) | 1.26 µM (inactive) | 2.26 µM (inactive) | 0.459 µM (active) | 2.85 µM | 7.73 µM (inactive) | 3.11 µM (inactive) | 1.91 µM (inactive) | 3.32 µM (inactive) | 1.29 µM (inactive) | 1.66 µM (inactive) | 3.93 µM (inactive) | 2.93 µM (inactive) | 2.25 µM (inactive) | 2.3 µM (inactive)
Cc1cccc(C)c1NC(=O)CCC(=O)NNc1nnc(C)n1N | > 100 µM (inactive) | > 100 µM (inactive) | > 100 µM (inactive) | > 100 µM (inactive) | > 100 µM | > 100 µM (inactive) | > 100 µM (inactive) | > 100 µM (inactive) | > 100 µM (inactive) | > 100 µM (inactive) | > 100 µM (inactive) | > 100 µM (inactive) | > 100 µM (inactive) | > 100 µM (inactive) | > 100 µM (inactive)
C=CCO/N=C(\OC(=O)c1ccc([N+](=O)[O-])cc1)c1ccccc1 | > 100 µM (inactive) | > 100 µM (inactive) | > 100 µM (inactive) |  | > 100 µM |  | > 100 µM (inactive) | > 100 µM (inactive) | > 100 µM (inactive) |  | > 100 µM (inactive) | > 100 µM (inactive) | > 100 µM (inactive) | > 100 µM (inactive) | > 100 µM (inactive)
C/C(=N\Nc1ccc([N+](=O)[O-])cc1)C(=O)N(C)Nc1ccccc1 | 40.5 µM (inactive) | 35.4 µM (inactive) |  |  | 48.1 µM | 65.3 µM (inactive) | 43.2 µM (inactive) | 38.9 µM (inactive) | 58.5 µM (inactive) | 52.8 µM (inactive) |  |  | 64.3 µM (inactive) | > 100 µM (inactive) | 53.7 µM (inactive)
C[N+]1=C(c2cccnc2/C=N/O)OCC1(C)C | > 100 µM (inactive) | > 100 µM (inactive) | > 100 µM (inactive) | > 100 µM (inactive) | > 100 µM | > 100 µM (inactive) | > 100 µM (inactive) | < 0.01 µM (active) | > 100 µM (inactive) | > 100 µM (inactive) | > 100 µM (inactive) | > 100 µM (inactive) | > 100 µM (inactive) | > 100 µM (inactive) | > 100 µM (inactive)
CC12CCC[C@@](C)(C(=O)OC3OC(CO)C(O)C(O)C3O)[C@H]1CCC13CC4CC(OC4(CO)[C@H]1O)[C@@H]23 (stereo not given in full) | > 100 µM (inactive) | > 100 µM (inactive) | > 100 µM (inactive) | > 100 µM (inactive) | 53.7 µM |  | > 100 µM (inactive) | > 100 µM (inactive) | > 100 µM (inactive) | > 100 µM (inactive) | > 100 µM (inactive) | > 100 µM (inactive) | > 100 µM (inactive) | > 100 µM (inactive) | > 100 µM (inactive)
NC(=S)N/N=C1\CCCC\C1=C/c1ccccc1 | > 100 µM (inactive) | > 100 µM (inactive) |  | 58.2 µM (inactive) | 67.1 µM | 1.88 µM (inactive) | 91 µM (inactive) |  | > 100 µM (inactive) | 18.7 µM (inactive) | 12.8 µM (inactive) | > 100 µM (inactive) | 39.9 µM (inactive) | 30.5 µM (inactive) | 47.2 µM (inactive)
O=C(Nc1ccc(Cl)c(Cl)c1)C1C(=O)N(c2ccc(Cl)c(Cl)c2)C(=O)/C1=N\O (stereo not given) | 36.6 µM (inactive) | > 100 µM (inactive) | > 100 µM (inactive) | 32.6 µM (inactive) | > 100 µM |  | 22.9 µM (inactive) | 50.5 µM (inactive) | > 100 µM (inactive) | 27.4 µM (inactive) | > 100 µM (inactive) | 25.6 µM (inactive) | > 100 µM (inactive) | 42.1 µM (inactive) | > 100 µM (inactive)
CC(=O)NC1=C(NCCC(C)C)C(=O)c2ccccc2C1=O | > 50 µM (inactive) | 0.0301 µM (active) |  | > 50 µM (inactive) | > 50 µM | > 50 µM (inactive) | > 50 µM (inactive) | > 50 µM (inactive) | > 50 µM (inactive) | > 50 µM (inactive) |  | > 50 µM (inactive) | > 50 µM (inactive) | > 50 µM (inactive) | > 50 µM (inactive)
